Drawing on PubChem BioAssay (NCI), this text covers TGI and GI50 for 21 compounds.

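These data come from cells grown in 96-well plates and exposed to compound for 48 hours at five concentrations. Here, GI50 denotes the concentration required for 50% inhibition of growth. TGI denotes the concentration required for complete inhibition of growth.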

Some test systems named below: HS 578T breast; MCF7 breast; HOP-92 NSCLC; SNB-19 CNS; HL-60(TB) leukemia; TK-10 renal; RXF 393 renal; NCI/ADR-RES ovarian; OVCAR-5 ovarian; CAKI-1 renal.
Common to all, as to assay: NCI-60 cell line screen, 48 h

Consider `N#Cc1nc(C2CCC2)oc1N`, for which the TGI with HS 578T breast, with MCF7 breast, in the assay on HOP-92 NSCLC, in the assay with SNB-19 CNS, in the assay on HL-60(TB) leukemia and with TK-10 renal was more than 100 µM throughout. The TGI in the assay with RXF 393 renal, with NCI/ADR-RES ovarian, in the assay on OVCAR-5 ovarian and in the assay with CAKI-1 renal was more than 100 µM in each case.
As for `COc1ccc(-c2cc(-c3ccccc3)[nH]c(=S)c2C#N)cc1`, the TGI is more than 100 µM in the assay with HS 578T breast; more than 100 µM in the assay with MCF7 breast; 98.3 µM with HOP-92 NSCLC; more than 100 µM in the assay on SNB-19 CNS; more than 100 µM in the assay on HL-60(TB) leukemia; more than 100 µM in the assay with TK-10 renal. Besides, the TGI in the assay on RXF 393 renal, in the assay with NCI/ADR-RES ovarian, in the assay on OVCAR-5 ovarian and in the assay with CAKI-1 renal was more than 100 µM throughout.
`Cc1ccc(C2=CC(=O)/C(=C\C(=O)c3ccc(Cl)cc3)O2)cc1`: the TGI with HS 578T breast is 55.1 µM; in the assay on MCF7 breast, 25.6 µM; with HOP-92 NSCLC, 33.3 µM; in the assay with SNB-19 CNS it was more than 100 µM; in the assay with HL-60(TB) leukemia, 4.74 µM; in the assay with TK-10 renal, 9.67 µM. The TGI in the assay with RXF 393 renal came out at 18.6 µM; in the assay on NCI/ADR-RES ovarian it was 49.6 µM; in the assay with OVCAR-5 ovarian, 40.6 µM; with CAKI-1 renal, 4.38 µM.
Turning to `COc1ccc(N(C(=O)Nc2ccc(Cl)c(Cl)c2)C2c3cccn3C(=O)N2c2ccc(Cl)c(Cl)c2)cc1` (stereo not given), the TGI in the assay on HS 578T breast, in the assay with MCF7 breast, in the assay on HOP-92 NSCLC, in the assay with SNB-19 CNS, with HL-60(TB) leukemia and in the assay with TK-10 renal was more than 100 µM each time. Moreover, the TGI in the assay with RXF 393 renal, in the assay with NCI/ADR-RES ovarian, in the assay on OVCAR-5 ovarian and with CAKI-1 renal was more than 100 µM in each case.
For `COc1cc2c(c(O)c1OC)C(=O)C(Cc1ccc(O)cc1)CO2` (stereo not given), the TGI in the assay with HS 578T breast is 36.5 µM; with MCF7 breast, 8.65 µM; in the assay with HOP-92 NSCLC, more than 100 µM; with SNB-19 CNS, 74.1 µM; in the assay on HL-60(TB) leukemia, 98.3 µM; with TK-10 renal it was more than 100 µM. Also, the TGI with RXF 393 renal was 54 µM; in the assay on NCI/ADR-RES ovarian, 39.2 µM; with OVCAR-5 ovarian, more than 100 µM; in the assay on CAKI-1 renal, 75.9 µM.
Regarding `O=[N+]([O-])c1ccc2c(c1)C1=NN(c3ccccc3)C(c3ccccc3Br)C1CCC2` (stereo not given), the TGI is more than 50 µM in the assay on HS 578T breast; more than 50 µM with MCF7 breast; 48.1 µM in the assay with HOP-92 NSCLC; more than 50 µM in the assay with SNB-19 CNS; 24.1 µM with HL-60(TB) leukemia; more than 50 µM with TK-10 renal. The TGI in the assay on RXF 393 renal was 43 µM; in the assay on NCI/ADR-RES ovarian, 45.6 µM; in the assay with OVCAR-5 ovarian, more than 50 µM; in the assay with CAKI-1 renal, more than 50 µM.
Regarding `COc1cc(/C=C/C=C2\CC/C(=C\C=C\c3ccc(O)c(OC)c3)C2=O)ccc1O`, the TGI in the assay with HS 578T breast was more than 100 µM; in the assay with MCF7 breast, more than 100 µM; in the assay with HOP-92 NSCLC, more than 100 µM; in the assay with SNB-19 CNS, more than 100 µM; with HL-60(TB) leukemia, more than 63.8 µM; in the assay with TK-10 renal, more than 100 µM. In addition, the TGI is 77.7 µM in the assay on RXF 393 renal, more than 100 µM with NCI/ADR-RES ovarian, more than 100 µM in the assay on OVCAR-5 ovarian and more than 100 µM in the assay on CAKI-1 renal.
Consider `COc1cc2c(cc1Cc1c(F)cccc1Cl)nc(-c1c(F)cccc1Cl)n2Cc1c(F)cccc1Cl`, for which the TGI in the assay on HS 578T breast was more than 100 µM; in the assay on MCF7 breast, more than 100 µM; in the assay on HOP-92 NSCLC, 37.6 µM; with SNB-19 CNS, more than 100 µM; in the assay on HL-60(TB) leukemia, more than 100 µM; in the assay on TK-10 renal, more than 100 µM. The TGI in the assay on RXF 393 renal was more than 100 µM; in the assay with NCI/ADR-RES ovarian it was more than 100 µM; with OVCAR-5 ovarian it was more than 100 µM; in the assay on CAKI-1 renal, 91.3 µM.
For the compound `CC(C)OC(=O)OCSc1ccccc1N=Cc1cccc([N+](=O)[O-])c1`, the TGI in the assay with HS 578T breast, in the assay with MCF7 breast, in the assay with HOP-92 NSCLC, in the assay on SNB-19 CNS, in the assay on HL-60(TB) leukemia and with TK-10 renal was more than 10 µM throughout. For the same compound, the TGI in the assay with RXF 393 renal, in the assay on NCI/ADR-RES ovarian, with OVCAR-5 ovarian and in the assay on CAKI-1 renal was more than 10 µM each time.
As for `Oc1[nH]c2ccccc2c1N=NC(=S)Nc1ccc(Cl)cc1`, the TGI was more than 100 µM with HS 578T breast; more than 100 µM in the assay on MCF7 breast; more than 100 µM in the assay on HOP-92 NSCLC; more than 100 µM in the assay with SNB-19 CNS; more than 100 µM with HL-60(TB) leukemia; 94.1 µM with TK-10 renal. The TGI is more than 100 µM in the assay on RXF 393 renal, 38.8 µM with NCI/ADR-RES ovarian, more than 100 µM with OVCAR-5 ovarian and 64 µM with CAKI-1 renal.
Regarding `O=c1[nH]c(Nc2cccc(CO)c2)nc2nc[nH]c12`, the TGI in the assay with HS 578T breast, in the assay on MCF7 breast, in the assay on HOP-92 NSCLC, in the assay on SNB-19 CNS, in the assay with HL-60(TB) leukemia and with TK-10 renal was more than 100 µM throughout. In addition, the TGI in the assay with RXF 393 renal, with NCI/ADR-RES ovarian, with OVCAR-5 ovarian and in the assay with CAKI-1 renal was more than 100 µM throughout.
For the compound `COc1cc2ccc1OCc1cccc(n1)COc1ccc(cc1OC)C=Nc1ccc(cc1)N=C2`, the TGI with HS 578T breast, with MCF7 breast, in the assay with HOP-92 NSCLC, in the assay on SNB-19 CNS, in the assay on HL-60(TB) leukemia and in the assay on TK-10 renal was more than 100 µM in each case. For the same compound, the TGI in the assay on RXF 393 renal, with NCI/ADR-RES ovarian, in the assay on OVCAR-5 ovarian and in the assay with CAKI-1 renal was more than 100 µM in each case.
In the case of `COc1ccc(CC2COc3cc(O)cc(O)c3C2=O)cc1O` (stereo not given), the TGI with HS 578T breast, in the assay with MCF7 breast, with HOP-92 NSCLC, with SNB-19 CNS, with HL-60(TB) leukemia and in the assay on TK-10 renal was more than 100 µM each time. In addition, the TGI in the assay with RXF 393 renal is more than 100 µM; with NCI/ADR-RES ovarian it was 8.78 µM; in the assay on OVCAR-5 ovarian it was more than 100 µM; in the assay with CAKI-1 renal, more than 100 µM.
As to `O=C(Nc1noc(-c2ccccc2)n1)c1ccccc1CNc1noc(-c2ccccc2)n1`, the TGI in the assay on HS 578T breast, in the assay on MCF7 breast, with HOP-92 NSCLC, in the assay on SNB-19 CNS, with HL-60(TB) leukemia and with TK-10 renal was more than 100 µM each time. Further, the TGI in the assay with RXF 393 renal, in the assay with NCI/ADR-RES ovarian, in the assay on OVCAR-5 ovarian and with CAKI-1 renal was more than 100 µM each time.
For the compound `C#CCN(Cc1ccc2nc(OC)c(OC)nc2c1)c1cc(OC)c(OC)c(OC)c1`, the TGI was 79.1 µM with HS 578T breast; more than 66 µM in the assay with MCF7 breast; 62.6 µM with HOP-92 NSCLC; more than 80.9 µM in the assay on SNB-19 CNS; 43.5 µM in the assay on HL-60(TB) leukemia; more than 100 µM in the assay with TK-10 renal. Moreover, the TGI in the assay with RXF 393 renal was more than 75.1 µM; in the assay on NCI/ADR-RES ovarian it was 53.7 µM; in the assay with OVCAR-5 ovarian, more than 85.8 µM; with CAKI-1 renal, more than 82.8 µM.
Turning to `CCCCn1c(-c2ccc([N+](=O)[O-])cc2)cs/c1=N/N=C1\C(=O)Nc2ccc(Br)cc21`, the TGI with HS 578T breast was more than 100 µM; in the assay on MCF7 breast, 17.7 µM; with HOP-92 NSCLC, 73.3 µM; in the assay on SNB-19 CNS, 69.3 µM; in the assay with HL-60(TB) leukemia it was 85.9 µM; in the assay with TK-10 renal, 34 µM. The TGI in the assay with RXF 393 renal is 22.5 µM; in the assay on NCI/ADR-RES ovarian, 37.4 µM; with OVCAR-5 ovarian it was more than 100 µM; with CAKI-1 renal, 63.2 µM.
For `CC(=O)O[C@H]1CCc2c(cc(N)c3c2C(=O)C[C@]2(C)C([C@H](C)CCCC(C)C)CCC32C)C1(C)C` (stereo not given in full), the TGI in the assay with HS 578T breast, with MCF7 breast, with HOP-92 NSCLC, in the assay on SNB-19 CNS, with HL-60(TB) leukemia and in the assay on TK-10 renal was more than 100 µM each time. For the same compound, the TGI with RXF 393 renal, in the assay with NCI/ADR-RES ovarian, in the assay on OVCAR-5 ovarian and in the assay with CAKI-1 renal was more than 100 µM each time.
For `O=c1[nH]nc(Cc2ccccc2)n1/N=C/c1ccncc1`, the TGI in the assay on HS 578T breast, with MCF7 breast, in the assay on HOP-92 NSCLC, with SNB-19 CNS, in the assay with HL-60(TB) leukemia and in the assay on TK-10 renal was more than 100 µM throughout. In addition, the TGI in the assay with RXF 393 renal, in the assay with NCI/ADR-RES ovarian, with OVCAR-5 ovarian and in the assay on CAKI-1 renal was more than 100 µM each time.
Take `COc1ccc(CN2C3CC2CN(c2ccc(-c4cc(OCC(C)(C)O)cn5ncc(C#N)c45)cn2)C3)cn1`: the GI50 with HS 578T breast is 2.01 µM; with MCF7 breast it was 6.06 µM; in the assay with HOP-92 NSCLC, 2.12 µM; in the assay on SNB-19 CNS it was 20.7 µM; in the assay on HL-60(TB) leukemia it was more than 100 µM; in the assay on TK-10 renal it was 10.5 µM. Moreover, the GI50 is 2.18 µM with RXF 393 renal, 28.7 µM with NCI/ADR-RES ovarian, more than 100 µM in the assay on OVCAR-5 ovarian and 4.78 µM in the assay on CAKI-1 renal. The TGI was 7.12 µM in the assay on HS 578T breast; more than 100 µM in the assay with MCF7 breast; 7.35 µM with HOP-92 NSCLC; more than 100 µM in the assay on SNB-19 CNS; more than 100 µM with HL-60(TB) leukemia; more than 100 µM in the assay on TK-10 renal. Moreover, the TGI in the assay on RXF 393 renal is 9.45 µM; with NCI/ADR-RES ovarian, more than 100 µM; in the assay on OVCAR-5 ovarian, more than 100 µM; in the assay on CAKI-1 renal, more than 100 µM.
As for `N#Cc1c(-c2ccccc2)cc(-c2ccc(Cl)cc2)[nH]c1=S`, the TGI is more than 100 µM in the assay with HS 578T breast; 53.1 µM in the assay with MCF7 breast; more than 100 µM in the assay on HOP-92 NSCLC; more than 100 µM with SNB-19 CNS; more than 100 µM with HL-60(TB) leukemia; more than 100 µM in the assay on TK-10 renal. Further, the TGI in the assay on RXF 393 renal, in the assay with NCI/ADR-RES ovarian, with OVCAR-5 ovarian and in the assay with CAKI-1 renal was more than 100 µM in each case.
`O=C1CSC2=NC3=C(COC/C3=C\c3ccc(Br)cc3)C(c3ccc(Br)cc3)N12` (stereo not given): the TGI in the assay on HS 578T breast is more than 100 µM; in the assay with MCF7 breast, more than 100 µM; with HOP-92 NSCLC it was more than 100 µM; with SNB-19 CNS it was more than 100 µM; in the assay on HL-60(TB) leukemia, 36.9 µM; in the assay with TK-10 renal, more than 100 µM. Besides, the TGI in the assay on RXF 393 renal, in the assay on NCI/ADR-RES ovarian, with OVCAR-5 ovarian and in the assay on CAKI-1 renal was more than 100 µM in each case.
